{"source": "patent US20210155644A1", "about": "“CYCLOPENTENYL PURINE DERIVATIVE OR SALT THEREOF” (Fujifilm Corporation, priority 2018, published 2021)", "data": [{"test_system": "adenovirus type 6 (ADV6)", "test": "Evaluation of anti-adenovirus activity: CRL-11516 cells infected with ADV6, anti-hexon staining, count of stained cells", "type": "cell-based", "settings": "CRL-11516 cells infected with ADV6, 48 hours culture, concentration reducing dark brown-stained cells by 50%; read-out: Anti-AdV activity EC50", "description": "(§1) A system in which CRL-11516 cells (available from ATCC) were infected with adenovirus type 6 (hereinafter, referred to as ADV6) was constructed, and a test for evaluating the anti-adenovirus activity of the compound according to the embodiment of the present invention and the compound of Comparative Example was carried out using the system. The test for evaluating the anti-adenovirus activity was carried out according to the method described below.\n(§2) CRL-11516 cells were added to a 96-well plate at a cell density of 1×10^4 cells/well and cultured at 37° C. for 24 hours. After the culture was completed, the cell culture liquid was removed, and a serial dilution (100 μL) of the compound according to the embodiment of the present invention or the compound of Comparative Example was added. ADV6 (corresponding to 50TCID50) was added thereto, followed by culturing at 37° C. for 48 hours.\n(§3) After the culture was completed, the infected cells were stained using Adeno-X Rapid Titer Kit (manufactured by Takara Bio Inc.). 100% methanol was added thereto and the cells were fixed at −20° C. for 10 minutes. The plate was washed three times with phosphate buffered saline (hereinafter, referred to as PBS) and then Mouse Anti-Hexon Antibody was added thereto, followed by incubation at 37° C. for 1 hour. After the incubation was completed, the plate was washed three times with PBS, and Rat Anti-Mouse Antibody was added thereto, followed by incubation at 37° C. for 1 hour. After the incubation was completed, a mixed staining solution of Stable Peroxidase Buffer:DAB Substrate=10:1 was added thereto, followed by incubation at room temperature for 10 minutes for staining of the cells.\n(§4) The number of dark brown-stained cells was counted under a microscope, and the concentration of the test drug that reduces the dark brown-stained cells by 50% was defined as EC50. EC50 values were calculated for the triplicate test results, and a mean value and a standard deviation thereof were determined.", "units": {"EC50": "nM"}, "values": [{"smiles": "COC(=O)[C@H](C)NP(=O)(OC[C@@H]1C=C[C@H](n2cnc3c(Cl)nc(N)nc32)C1)Oc1ccc(Cl)cc1", "note": "(stereo partly drawn) [Example 1-2-4, methyl ((((1S,4R)-4-(2-amino-6-chloro-9H-purin-9-yl)cyclopent-2-en-1-yl)methoxy)(4-chlorophenoxy)phosphoryl)-L-alaninate]", "EC50": "< 10"}, {"smiles": "COc1nc(N)nc2c1ncn2[C@H]1C=C[C@@H](COP(=O)(OCCSSCCOCc2ccccc2)OCCSSCCOCc2ccccc2)C1", "note": "[Example 1-2-8, ((1S,4R)-4-(2-amino-6-methoxy-9H-purin-9-yl)cyclopent-2-en-1-yl)methylbis(2-((2-(benzyloxy)ethyl)disulfanyl)ethyl)phosphate]", "EC50": "10 to 100"}, {"smiles": "CNc1nc(N)nc2c1ncn2[C@H]1C=C[C@@H](CO[P@](=O)(N[C@@H](C)C(=O)OC(C)C)Oc2ccccc2)C1", "note": "[Example 2-2-29]", "EC50": "10 to 100"}, {"smiles": "COC(=O)[C@H](C)NP(=O)(OCCSC(=O)C(C)(C)C)OC[C@@H]1C=C[C@H](n2cnc3c(OC)nc(N)nc32)C1", "note": "(stereo partly drawn) [Example 4-6-1, ((((1S,4R)-4-(2-amino-6-methoxy-9H-purin-9-yl)cyclopent-2-en-1-yl)methoxy)(2-(pivaloylthio)ethoxy)phosphoryl)-L-alaninate]", "EC50": "< 10"}, {"smiles": "COc1nc(N)nc2c1ncn2[C@H]1C=C[C@@H](COP(=O)(N[C@@H](C)C(=O)OC(C)C)Oc2ccccc2)C1", "note": "(stereo partly drawn) [Example 4-4-2, Isopropyl ((((1 S,4R)-4-(2-amino-6-methoxy-9H-purin-9-yl)cyclopent-2-en-1-yl)methoxy)(phenoxy)phosphoryl)-L-alaninate]", "EC50": "100 to 1000"}, {"smiles": "CC(C)OC(=O)[C@H](C)NP(=O)(OC[C@@H]1C=C[C@H](n2cnc3c(Cl)nc(N)nc32)C1)Oc1ccccc1", "note": "(stereo partly drawn) [Example 4-3-2, Isopropyl ((((1 S,4R)-4-(2-amino-6-chloro-9H-purin-9-yl)cyclopent-2-en-1-yl)methoxy)(phenoxy)phosphoryl)-L-alaninate]", "EC50": "100 to 1000"}, {"smiles": "CC(C)OC(=O)[C@H](C)NP(=O)(OC[C@@H]1C=C[C@H](n2cnc3c(Cl)nc(N)nc32)C1)Oc1ccccc1", "note": "(stereo partly drawn) [Example 4-3-1, Isopropyl ((((1 S,4R)-4-(2-amino-6-chloro-9H-purin-9-yl)cyclopent-2-en-1-yl)methoxy)(phenoxy)phosphoryl)-L-alaninate]", "EC50": "10 to 100"}, {"smiles": "CC(C)OC(=O)[C@H](C)NP(=O)(OC[C@@H]1C=C[C@H](n2cnc3c(Cl)nc(N)nc32)C1)Oc1ccccc1", "note": "(stereo partly drawn) [Example 2-2-1, isopropyl ((((1S,4R)-4-(2-amino-6-chloro-9H-purin-9-yl)cyclopent-2-en-1-yl)methoxy)(phenoxy)phosphoryl)-L-alaninate]", "EC50": "100 to 1000"}]}, {"test_system": "adenovirus type 6 (ADV6)", "test": "Evaluation of anti-adenovirus activity: CRL-11516 cells infected with ADV6, anti-hexon staining, count of stained cells", "type": "cell-based", "settings": "Human mastadenovirus C, 48 h, CRL-11516 cells infected with ADV6, 48 hours culture, concentration reducing dark brown-stained cells by 50%; read-out: Anti-AdV activity EC50", "description": "as §1, §2, §3, §4", "units": {"EC50": "nM"}, "values": [{"smiles": "COCCOc1cccc(OP(=O)(N[C@@H](C)C(=O)OC(C)C)OC[C@@H]2C=C[C@H](n3cnc4c(OC)nc(N)nc43)C2)c1", "note": "(stereo partly drawn) [Example 6-2-23, isopropyl ((((1S,4R)-4-(2-amino-6-methoxy-9H-purin-9-yl)cyclopent-2-en-1-yl)methoxy)(3-(2-methoxyethoxy)phenoxy)phosphoryl)-L-alaninate]", "EC50": "< 10"}, {"smiles": "COC(=O)[C@H](C)NP(=O)(OC[C@@H]1C=C[C@H](n2cnc3c(NC4CC4)nc(N)nc32)C1)Oc1ccccc1", "note": "(stereo partly drawn) [Example 2-2-3, Methyl ((((1S,4R)-4-(2-amino-6-(cyclopropyl-amino)-9H-purin-9-yl)cyclopent-2-en-1-yl)methoxy) (phenoxy)phosphoryl)-L-alaninate]", "EC50": "10 to 100"}, {"smiles": "CC(C)OC(=O)[C@H](C)NP(=O)(OC[C@@H]1C=C[C@H](n2cnc3c(NC4CC4)nc(N)nc32)C1)Oc1ccccc1", "note": "(stereo partly drawn) [Example 2-2-2, Isopropyl ((((1S,4R)-4-(2-amino-6-(cyclopropyl-amino)-9H-purin-9-yl)cyclopent-2-en-1-yl)methoxy) (phenoxy)phosphoryl)-L-alaninate]", "EC50": "100 to 1000"}, {"smiles": "CC(C)OC(=O)[C@H](C)N[P@@](=O)(OC[C@@H]1C=C[C@H](n2cnc3c(OC4CCC4)nc(N)nc32)C1)Oc1ccccc1", "note": "[Example 2-2-35, isopropyl ((R)-(((1S,4R)-4-(2-amino-6-cyclobutoxy-9H-purin-9-yl)cyclopent-2-en-1-yl)methoxy)(phenoxy)phosphoryl)-L-alaninate]", "EC50": "10 to 100"}, {"smiles": "CCOc1nc(N)nc2c1ncn2[C@H]1C=C[C@@H](CO[P@](=O)(N[C@@H](C)C(=O)OC(C)C)Oc2ccccc2)C1", "note": "[Example 2-2-17, isopropyl ((R)-(((1S,4R)-4-(2-amino-6-ethoxy-9H-purin-9-yl)cyclopent-2-en-1-yl)methoxy)(phenoxy)phosphoryl)-L-alaninate]", "EC50": "< 10"}, {"smiles": "COC(=O)[C@H](C)NP(=O)(OC[C@@H]1C=C[C@H](n2cnc3c(OC)nc(N)nc32)C1)Oc1ccc(Br)cc1", "note": "(stereo partly drawn) [Example 1-2-3, methyl ((((1S,4R)-4-(2-amino-6-methoxy-9H-purin-9-yl)cyclopent-2-en-1-yl)methoxy)(4-bromophenoxy)phosphoryl)-L-alaninate]", "EC50": "< 10"}, {"smiles": "CCOC(=O)[C@H](C)NP(=O)(OC[C@@H]1C=C[C@H](n2cnc3c(OC)nc(N)nc32)C1)Oc1ccccc1", "note": "(stereo partly drawn) [Example 1-2-34, ethyl ((((1S,4R)-4-(2-amino-6-methoxy-9H-purin-9-yl)cyclopent-2-en-1-yl)methoxy)(phenoxy)phosphoryl)-L-alaninate]", "EC50": "10 to 100"}, {"smiles": "COC(=O)[C@H](C)NP(=O)(OC[C@@H]1C=C[C@H](n2cnc3c(N(C)C)nc(N)nc32)C1)Oc1ccc(Br)cc1", "note": "(stereo partly drawn) [Example 1-2-45, Methyl ((((1S,4R)-4-(2-amino-6-(dimethylamino)-9H-purin-9-yl)cyclopent-2-en-1-yl)methoxy)(4-bromophenoxy)phosphoryl)-L-alaninate]", "EC50": "< 10"}, {"smiles": "CC(C)OC(=O)[C@H](C)N[P@@](=O)(OC[C@@H]1C=C[C@H](n2cnc3c(N(C)C)nc(N)nc32)C1)Oc1ccccc1", "note": "[Example 2-2-25, isopropyl ((R)-(((1S,4R)-4-(2-amino-6-(dimethylamino)-9H-purin-9-yl)cyclopent-2-en-1-yl)methoxy)(phenoxy)phosphoryl)-L-alaninate]", "EC50": "10 to 100"}, {"smiles": "COC(=O)[C@H](C)NP(=O)(OC[C@@H]1C=C[C@H](n2cnc3c(N)nc(N)nc32)C1)Oc1ccc(Br)cc1", "note": "(stereo partly drawn) [Example 1-2-6, Methyl ((4-bromophenoxy)(((1S,4R)-4-(2,6-diamino-9H-purin-9-yl)cyclopent-2-en-1-yl)methoxy)phosphoryl)-L-alaninate]", "EC50": "100 to 1000"}, {"smiles": "COCCOc1nc(N)nc2c1ncn2[C@H]1C=C[C@@H](CO[P@](=O)(N[C@@H](C)C(=O)OC(C)C)Oc2ccccc2)C1", "note": "[Example 2-2-21, isopropyl ((R)-(((1S,4R)-4-(2-amino-6-(2-methoxyethoxy)-9H-purin-9-yl)cyclopent-2-en-1-yl)methoxy) (phenoxy)phosphoryl)-L-alaninate]", "EC50": "10 to 100"}, {"smiles": "COC(=O)[C@H](C)NP(=O)(OC[C@@H]1C=C[C@H](n2cnc3c(OC)nc(N)nc32)C1)Oc1ccccc1", "note": "(stereo partly drawn) [Example 4-2-1, methyl ((((1 S,4R)-4-(2-amino-6-methoxy-9H-purin-9-yl)cyclopent-2-en-1-yl)methoxy)(phenoxy)phosphoryl)-L-alaninate]", "EC50": "10 to 100"}, {"smiles": "COc1nc(N)nc2c1ncn2[C@H]1C=C[C@@H](COP(=O)(N[C@@H](C)C(=O)OC2CC2)Oc2ccccc2)C1", "note": "(stereo partly drawn) [Example 1-2-58, cyclopropyl ((((1S,4R)-4-(2-amino-6-methoxy-9H-purin-9-yl)cyclopent-2-en-1-yl)methoxy)(phenoxy)phosphoryl)-L-alaninate]", "EC50": "10 to 100"}, {"smiles": "COC(=O)[C@H](C)NP(=O)(OC[C@@H]1C=C[C@H](n2cnc3c(Cl)nc(N)nc32)C1)Oc1ccccc1", "note": "(stereo partly drawn) [Example 2-2-7, Methyl ((((1S,4R)-4-(2-amino-6-chloro-9H-purin-9-yl)cyclopent-2-en-1-yl)methoxy) (phenoxy)phosphoryl)-L-alaninate]", "EC50": "10 to 100"}]}, {"test_system": "adenovirus type 6 (ADV6)", "test": "Evaluation of anti-adenovirus activity: CRL-11516 cells infected with ADV6, anti-hexon staining, count of stained cells", "type": "cell-based", "settings": "Human mastadenovirus C; CRL-11516 cells infected with ADV6, 48 hours culture, concentration reducing dark brown-stained cells by 50%; read-out: Anti-AdV activity EC50", "description": "as §1, §2, §3, §4", "units": {"EC50": "nM"}, "values": [{"smiles": "COc1nc(N)nc2c1ncn2[C@H]1C=C[C@@H](COP(=O)(N[C@@H](C)C(=O)OC(C)C)OCCSC(=O)C(C)(C)C)C1", "note": "(stereo partly drawn) [Example 1-2-74, isopropyl ((((1S,4R)-4-(2-amino-6-methoxy-9H-purin-9-yl)cyclopent-2-en-1-yl)methoxy)(2-(pivaloylthio)ethoxy)phosphoryl)-L-alaninate]", "EC50": "10 to 100"}, {"smiles": "CC(C)OC(=O)[C@H](C)NP(=O)(OCCSC(=O)C(C)(C)C)OC[C@@H]1C=C[C@H](n2cnc3c(Cl)nc(N)nc32)C1", "note": "(stereo partly drawn) [Example 1-2-73, isopropyl ((((1S,4R)-4-(2-amino-6-chloro-9H-purin-9-yl)cyclopent-2-en-1-yl)methoxy)(2-(pivaloylthio)ethoxy)phosphoryl)-L-alaninate]", "EC50": "< 10"}]}, {"test_system": "adenovirus type 6 (ADV6)", "test": "Evaluation of anti-adenovirus activity: CRL-11516 cells infected with ADV6, anti-hexon staining, count of stained cells", "type": "cell-based", "settings": "read-out: Anti-AdV activity EC50; CRL-11516 cells infected with ADV6, 48 hours culture, concentration reducing dark brown-stained cells by 50%", "description": "as §1, §2, §3, §4", "units": {"EC50": "nM"}, "values": [{"smiles": "COc1nc(N)nc2c1ncn2[C@H]1C=C[C@@H](COP(=O)(OCCSC(=O)C(C)(C)C)Oc2ccccc2)C1", "note": "(stereo partly drawn) [Example 4-7-2, S-(2-(((((1 S,4R)-4-(2-amino-6-methoxy-9H-purin-9-yl)cyclopent-2-en-1-yl)methoxy) (phenoxy)phosphoryl)oxy)ethyl) 2,2-dimethylpropanethioate]", "EC50": "10 to 100"}]}]}
